Laboratory results: patent US12351570B2 (MERCK PATENT GMBH, priority 2018, dated 2025)

system: MDA-MB-231 cells; assay: Extracellular lactate production inhibition after 4 h, MDA-MB-231; settings: Homo sapiens, MDA-MB-231

SMILES | IC50
O=C(O)c1ccc(C#Cc2ccccc2NS(=O)(=O)c2c(Cl)nc3sccn23)cn1 [Compound 98, 5-[2-(2-{6-chloroimidazo[2,1-b][1,3]thiazole-5-sulfonamido}phenyl)-ethynyl]pyridine-2-carboxylic acid] | 1000 to 100000 nM
O=C(O)c1ccc(C#Cc2ccccc2NS(=O)(=O)c2ccc(Cl)c3nonc23)cn1 [Compound 99, 5-{2-[2-(7-chloro-2,1,3-benzoxadiazole-4-sulfonamido)phenyl]ethynyl}pyridine-2-carboxylic acid] | 1000 to 100000 nM
Cc1ccc2cccnc2c1S(=O)(=O)Nc1ccccc1C#Cc1ccc(C(=O)O)nc1C [Compound 100, 6-methyl-5-{2-[2-(7-methylquinoline-8-sulfonamido)phenyl]ethynyl}pyridine-2-carboxylic acid] | 1000 to 100000 nM
O=C(O)c1ccc(C#Cc2c(F)cccc2NS(=O)(=O)c2cccc3cccnc23)cn1 [Compound 101, 5-{2-[2-fluoro-6-(quinoline-8-sulfonamido)phenyl]ethynyl}pyridine-2-carboxylic acid] | 1000 to 100000 nM
Cc1cc(C#Cc2ccccc2NS(=O)(=O)c2c(C)ccc3cccnc23)cnc1C(=O)O [Compound 102, 3-methyl-5-{2-[2-(7-methylquinoline-8-sulfonamido)phenyl]ethynyl}pyridine-2-carboxylic acid] | 10 to 100 nM
O=C(O)c1ccc(C#Cc2ccccc2NS(=O)(=O)c2cccc(N3CCOCC3)c2)cn1 [Compound 105, 5-(2-{2-[3-(morpholin-4-yl)benzenesulfonamido]phenyl}-ethynyl)pyridine-2-carboxylic acid] | 1000 to 100000 nM
Cc1ccc2cccnc2c1S(=O)(=O)Nc1c(F)cccc1C#Cc1ccc(C(=O)O)nc1 [Compound 106, 5-{2-[3-fluoro-2-(7-methylquinoline-8-sulfonamido)phenyl]ethynyl}pyridine-2-carboxylic acid] | 1000 to 100000 nM
O=C(O)c1ccc(C#Cc2ccccc2NS(=O)(=O)N2CCc3ccccc3C2)cn1 [Compound 113, 5-(2-{2-[(1,2,3,4-tetrahydroisoquinoline-2-sulfonyl)amino]phenyl}ethynyl)pyridine-2-carboxylic acid] | 1000 to 100000 nM
COc1ccccc1-c1cccc(S(=O)(=O)Nc2ccccc2C#Cc2ccc(C(=O)O)nc2)c1 [Compound 114, 5-[2-(2-{2′-methoxy-[1,1′-biphenyl]-3-sulfonamido}phenyl)ethynyl]pyridine-2-carboxylic acid] | 100 to 1000 nM
O=CN(Cc1ccc2ccccc2c1)c1ccccc1C#Cc1ccc(C(=O)O)nc1 [Compound 115, 5-[2-(2-{N-[(naphthalen-2-yl)methyl]formamido}phenyl)ethynyl]-pyridine-2-carboxylic acid] | 100 to 1000 nM
CC(=O)N(Cc1ccc2ccccc2c1)c1ccccc1C#Cc1ccc(C(=O)O)nc1 [Compound 116, 5-[2-(2-{N-[(naphthalen-2-yl)methyl]acetamido}phenyl)ethynyl]-pyridine-2-carboxylic acid] | 100 to 1000 nM
COc1ccc2cccc(S(=O)(=O)Nc3ccccc3C#Cc3ccc(C(=O)O)nc3)c2n1 [Compound 117, 5-{2-[2-(2-methoxyquinoline-8-sulfonamido)phenyl]ethynyl}pyridine-2-carboxylic acid] | 100 to 1000 nM
Cc1cc(C#Cc2ccccc2NS(=O)(=O)c2ccc3c(c2)Cc2ccccc2-3)cnc1C(=O)O [Compound 118, 5-{2-[2-(9H-fluorene-2-sulfonamido)phenyl]ethynyl}-3-methylpyridine-2-carboxylic acid] | 100 to 1000 nM
Cc1cc(C(=O)O)ncc1C#Cc1ccccc1NS(=O)(=O)c1ccc2c(c1)Cc1ccccc1-2 [Compound 119, 5-{2-[2-(9H-fluorene-2-sulfonamido)phenyl]ethynyl}-4-methylpyridine-2-carboxylic acid] | 100 to 1000 nM
CS(=O)(=O)N(Cc1ccc2ccccc2n1)c1ccccc1C#Cc1ccc(C(=O)O)nc1 [Compound 120, 5-[2-(2-{N-[(quinolin-2-yl)methyl]methanesulfonamido}phenyl)ethynyl]pyridine-2-carboxylic acid] | 1000 to 100000 nM
CC(=O)N(Cc1ccc2ccccc2n1)c1ccccc1C#Cc1ccc(C(=O)O)nc1 [Compound 121, 5-[2-(2-{N-[(quinolin-2-yl)methyl]acetamido}phenyl)ethynyl]-pyridine-2-carboxylic acid] | 100 to 1000 nM

Continued, values first:

IC50 | SMILES
100 to 1000 nM | O=C(O)c1ccc(C#Cc2ccccc2NS(=O)(=O)c2cccc(-c3ccccc3)c2)cn1 [Compound 96, 5-[2-(2-{[1,1′-biphenyl]-3-sulfonamido}phenyl)ethynyl]pyridine-2-carboxylic acid]
100 to 1000 nM | Cc1c(S(=O)(=O)Nc2ccccc2C#Cc2ccc(C(=O)O)nc2)ccc2ccccc12 [Compound 97, 5-{2-[2-(1-methylnaphthalene-2-sulfonamido)phenyl]ethynyl}pyridine-2-carboxylic acid]
100 to 1000 nM | O=C(O)c1ccc(C#Cc2ccccc2NS(=O)(=O)N2CCC3CCCCC3C2)cn1 (stereo not drawn) [Compound 103, 5-(2-{2-[(decahydroisoquinoline-2-sulfonyl)amino]phenyl}ethynyl)pyridine-2-carboxylic acid]
100 to 1000 nM | O=C(O)c1ccc(C#Cc2ccccc2NS(=O)(=O)c2csc3ccccc23)cn1 [Compound 104, 5-{2-[2-(1-benzothiophene-3-sulfonamido)phenyl]ethynyl}pyridine-2-carboxylic acid]
10 to 100 nM | Cc1cc(C(=O)O)ncc1C#Cc1ccccc1NS(=O)(=O)c1c(C)ccc2cccnc12 [Compound 107, 4-methyl-5-{2-[2-(7-methylquinoline-8-sulfonamido)phenyl]ethynyl}pyridine-2-carboxylic acid]
10 to 100 nM | O=C(O)c1ccc(C#Cc2ccccc2NS(=O)(=O)c2cccc3c2oc2ccccc23)cn1 [Compound 108, 5-[2-(Dibenzofuran-4-sulfonylamino)-phenylethynyl]-pyridine-2-carboxylic acid (5-[2-(2-{8-oxatricyclo[7.4.0.0^2,7]trideca-1(9),2,4,6,10,12-hexaene-6-sulfonamido}phenyl)ethynyl]pyridine-2-carboxylic acid)]
100 to 1000 nM | O=C(O)c1ccc(C#Cc2ccccc2NS(=O)(=O)c2cccc3scnc23)cn1 [Compound 109, 5-{2-[2-(1,3-benzothiazole-4-sulfonamido)phenyl]ethynyl}pyridine-2-carboxylic acid]
10 to 100 nM | COc1ccc(S(=O)(=O)Nc2ccccc2C#Cc2cnc(C(=O)O)cc2C)c2ncccc12 [Compound 110, 5-{2-[2-(5-methoxyquinoline-8-sulfonamido)phenyl]ethynyl}-4-methylpyridine-2-carboxylic acid]
100 to 1000 nM | O=C(O)c1ccc(C#Cc2cc(F)ccc2NS(=O)(=O)c2cccc3cccnc23)cn1 [Compound 111, 5-{2-[5-fluoro-2-(quinoline-8-sulfonamido)phenyl]ethynyl}pyridine-2-carboxylic acid]
10 to 100 nM | Cc1ccc2cccnc2c1S(=O)(=O)Nc1ccc(F)cc1C#Cc1ccc(C(=O)O)nc1 [Compound 112, 5-{2-[5-fluoro-2-(7-methylquinoline-8-sulfonamido)phenyl]ethynyl}pyridine-2-carboxylic acid]
10 to 100 nM | COC(=O)c1cc(C)c(C#Cc2ccccc2NS(=O)(=O)c2ccc(OC)c3cccnc23)cn1 [Compound 122, methyl 5-{2-[2-(5-methoxyquinoline-8-sulfonamido)phenyl]ethynyl}-4-methylpyridine-2-carboxylate]
